Experimental data taken from publication PMC7251097, “Aspartate/asparagine-β-hydroxylase: a high-throughput mass spectrometric assay for discovery of small molecule inhibitors” (Scientific Reports, 2020).
Counter-ions that a name gives are not always drawn. Like-named read-outs stand apart in the source and are kept apart here. Values belong to the compound of their own block, whether it stands above or below them. Residues, ends and D or L forms follow the SMILES beside them. *: point of attachment. Cbz = O=C(OCc1ccccc1)*

Molecular target: T1, His6-AspH315–758 (human aspartate/asparagine-β-hydroxylase, AspH) (Homo sapiens, UniProt Q12797)
T1 construct: N-Terminally His6-tagged human AspH315–758 (His6-AspH315–758) was produced in E. coli BL21 (DE3) cells; made in house; host or cells: E. coli BL21 (DE3), pET-28a(+) vector
T1 sequence (Q12797 315-758): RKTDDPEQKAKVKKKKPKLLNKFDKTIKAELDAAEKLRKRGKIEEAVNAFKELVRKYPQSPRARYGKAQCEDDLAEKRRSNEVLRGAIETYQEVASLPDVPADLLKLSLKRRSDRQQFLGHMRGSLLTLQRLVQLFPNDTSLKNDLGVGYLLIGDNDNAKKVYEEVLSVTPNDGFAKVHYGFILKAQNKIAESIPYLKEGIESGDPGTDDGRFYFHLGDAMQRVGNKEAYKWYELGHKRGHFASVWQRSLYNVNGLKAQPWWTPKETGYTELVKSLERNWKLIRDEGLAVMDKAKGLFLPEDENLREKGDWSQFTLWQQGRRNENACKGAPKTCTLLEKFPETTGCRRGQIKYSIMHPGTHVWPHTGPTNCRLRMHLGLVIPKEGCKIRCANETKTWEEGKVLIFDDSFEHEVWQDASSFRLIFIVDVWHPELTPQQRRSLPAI
Assay: SPE-MS AspH inhibition assay (LOPAC screen at fixed 20 μM and IC50 dose-response), hydroxylation of cyclic peptide hFX-CP101–119
Type: biochemical
Conditions: for IC50: 50 nM His6-AspH315–758, 1.0 μM hFX-CP101–119, 3 μM 2OG, 2 μM Fe(II), 50 mM HEPES pH 7.5, 20 °C, mean ± SD, n = 2 (2,4-PDCA n = 10), read-out: IC50

[1] = LOPAC compound at 20uM, plate 3, conversion of substrate peptide
[2] = LOPAC compound at fixed 20 uM, plate 1, normalised to DMSO and 2,4-PDCA controls
[3] = LOPAC compound at fixed 20 uM, substrate conversion, plate 1
[4] = LOPAC compound at 20uM, plate 2, conversion of substrate peptide
[5] = LOPAC compound at 20uM, plate 2, normalised to DMSO and 2,4-PDCA controls
[6] = LOPAC compound at 20uM, plate 2, normalised to DMSO and 2,4-PDCA controls, read-out: Plate 2 (% inhibition)
[7] = AspH activity, fixed compound concentration 20 μM, initial LOPAC screen, 0.5%v/v DMSO, read-out: Inhibition at 20 µM [%]

SMILES: CCCCCN(CCCCC)C(=O)C(CCC(=O)O)NC(=O)c1ccc(Cl)c(Cl)c1 (centres unmarked) [Lorglumide sodium]
Plate 3 (% conversion) [1]: 33.56%

SMILES: CCCCN(CCCC)CC(O)c1cc(Cl)cc2c1-c1ccc(Cl)cc1/C2=C/c1ccc(Cl)cc1 (centres unmarked) [Lumefantrine]
Plate 1 (% inhibition) [2]: -1.89% | Plate 1 (% conversion) [3]: 36.51%

SMILES: CC1(N2CCC(n3c([C@@H]4CCCNC4)nc4ccccc43)CC2)CCCCCCC1 [MCOPPB]
Plate 5 (% conversion): 39.16% | Plate 5 (% inhibition): -8.35%

SMILES: CC(C)[C@H](NC(=O)OCc1ccccc1)C(=O)N[C@H](C=O)Cc1ccccc1 [MDL 28170] (Cbz-Val-Phe-aldehyde)
Plate 3 (% conversion) [1]: 33.83%

SMILES: CC[N+](CC)(CC)CCOc1ccc(/C=C/c2ccccc2)cc1 [MG 624]
Plate 3 (% conversion) [1]: 29.92%

SMILES: CC(C)c1ccc2c(c1)c(SC(C)(C)C)c(CC(C)(C)C(=O)O)n2Cc1ccc(Cl)cc1 [MK-886, reference compound]
IC50: 8.58 ± 1.93 µM | Inhibition at 20 µM [%] (AspH activity, fixed compound concentration 20 μM, initial LOPAC screen, 0.5%v/v DMSO): 99.9%

SMILES: CN1CC[C@]2(CCN3CCc4c(oc5ccccc45)[C@@H]3C2)N(C)C1=O.Cl [MK-912]
Plate 3 (% conversion) [1]: 38.39%

SMILES: CN(C)CCCNC(=O)c1ccc(-c2cc(O)c3ncccc3c2)cc1 [ML324, reference compound]
IC50: 4.65 ± 1.28 µM

SMILES: O=[N+]([O-])/C=C/c1ccc2c(c1)OCO2 [MNS]
Plate 2 (% conversion) [4]: 25.80% | Plate 2 (% inhibition) [5]: 30.34%

SMILES: CNCCCC12CCC(c3ccccc31)c1ccccc12 [Maprotiline hydrochloride]
Plate 3 (% conversion) [1]: 42.77%

SMILES: C[N+](C)(C)CC#CCOC(=O)Nc1cccc(Cl)c1.[Cl-] [McN-A-343]
Plate 1 (% inhibition) [2]: -1.57% | Plate 1 (% conversion) [3]: 36.40%

SMILES: CNC1(C)C2CCC(C2)C1(C)C (centres unmarked) [Mecamylamine hydrochloride]
Plate 3 (% conversion) [1]: 34.21%

SMILES: Cc1ccc(Cl)c(Nc2ccccc2C(=O)O)c1Cl [Meclofenamic acid sodium]
Plate 3 (% conversion) [1]: 31.27%

SMILES: Cc1cnc(NC(=O)C2=C(O)c3ccccc3S(=O)(=O)N2C)s1 [Meloxicam sodium]
Plate 3 (% conversion) [1]: 33.11%

SMILES: CC(C)NCC(O)c1cc(O)cc(O)c1.CC(C)NCC(O)c1cc(O)cc(O)c1.O=S(=O)(O)O (centres unmarked) [Metaproterenol hemisulfate]
Plate 3 (% conversion) [1]: 40.68%

SMILES: CN1C[C@H](CNC(=O)OCc2ccccc2)C[C@@H]2c3cccc4c3c(cn4C)C[C@H]21 [Metergoline]
Plate 3 (% conversion) [1]: 47.43%

SMILES: CSc1ccc2c(c1)C(N1CCN(C)CC1)Cc1ccccc1S2 (centres unmarked) [Methiothepin mesylate]
Plate 3 (% conversion) [1]: 47.65%

SMILES: CN(Cc1cnc2nc(N)nc(N)c2n1)c1ccc(C(=O)N[C@@H](CCC(=O)O)C(=O)O)cc1.O [Methotrexate hydrate]
Plate 1 (% inhibition) [2]: -3.72% | Plate 1 (% conversion) [3]: 37.12%

SMILES: COc1ccc(OC)c(C(O)C(C)N)c1 (centres unmarked) [Methoxamine hydrochloride]
Plate 3 (% conversion): 32.85%

SMILES: CCN(CC)CCNC(=O)c1cc(Cl)c(N)cc1OC.Cl [Metoclopramide hydrochloride]
Plate 3 (% conversion) [1]: 35.20%

SMILES: Cc1ccccc1N1C(=O)c2cc(S(N)(=O)=O)c(Cl)cc2NC1C (centres unmarked) [Metolazone]
Plate 2 (% conversion) [4]: 34.23% | inhibition at 20 µM [6]: 5.16% | Plate 3 (% conversion) [1]: 30.85%

SMILES: CC[C@H](C)C(=O)O[C@H]1CCC=C2C=C[C@H](C)[C@H](CC[C@@H]3C[C@@H](O)CC(=O)O3)[C@H]21 [Mevastatin]
Plate 3 (% conversion) [1]: 41.68%

SMILES: CN1CCN2c3ccccc3Cc3ccccc3C2C1 (centres unmarked) [Mianserin hydrochloride]
Plate 3 (% conversion) [1]: 43.45%

SMILES: COCC(=O)O[C@]1(CCN(C)CCCc2nc3ccccc3[nH]2)CCc2cc(F)ccc2[C@@H]1C(C)C [Mibefradil dihydrochloride]
Plate 3 (% conversion) [1]: 62.31%

SMILES: Cc1[nH]c(=O)c(C#N)cc1-c1ccncc1 [Milrinone]
Plate 3 (% conversion) [1]: 40.58%

SMILES: CN(C)c1ccc(O)c2c1C[C@H]1C[C@H]3[C@H](N(C)C)C(O)=C(C(N)=O)C(=O)[C@@]3(O)C(O)=C1C2=O [Minocycline hydrochloride]
Plate 3 (% conversion) [1]: 8.64%

SMILES: CCOC(=O)[N-]c1cn(N2CCOCC2)n[o+]1 [Molsidomine]
Plate 3 (% conversion): 34.83%

SMILES: Br.NCc1cc(O)no1 [Muscimol hydrobromide]
Plate 2 (% conversion): 37.87% | Plate 2 (% inhibition) (20 µM): -5.71%

SMILES: O=c1c(O)c(-c2cc(O)c(O)c(O)c2)oc2cc(O)cc(O)c12 [Myricetin, reference compound]
Plate 3 (% conversion): 2.65% | inhibition at 20 µM [7]: 99.4%

SMILES: CC(=O)NCCc1c[nH]c2ccc(O)cc12 [N-Acetyl-5-hydroxytryptamine]
Plate 1 (% conversion): 34.66% | Plate 1 (% inhibition): 3.61%

SMILES: CC(=O)NCCc1c[nH]c2ccccc12 [N-Acetyltryptamine]
Plate 1 (% inhibition) [2]: -6.27% | Plate 1 (% conversion) [3]: 37.98%

SMILES: CC(=O)NBr [N-Bromoacetamide]
Plate 1 (% inhibition) [2]: 71.66% | Plate 1 (% conversion) [3]: 11.81%

Second part, the compound after the results:

Plate 3 (% conversion) [1]: 39.51%
SMILES: O=C([O-])[C@H](CC(=O)N1C[C@H]2CCCC[C@H]2C1)Cc1ccccc1.O=C([O-])[C@H](CC(=O)N1C[C@H]2CCCC[C@H]2C1)Cc1ccccc1.[Ca+2] [Mitiglinide calcium]

Plate 3 (% conversion) [1]: 41.03%
SMILES: NC(=O)c1ncn([C@@H]2O[C@H](CO)[C@@H](O)[C@H]2O)c1O [Mizoribine]

Plate 3 (% conversion) [1]: 38.98%
SMILES: O=C(NCCN1CCOCC1)c1ccc(Cl)cc1 [Moclobemide]

IC50: 13.4 ± 1 µM
SMILES: O=c1c(-n2ccnn2)c[nH]n1-c1cc(N2CCOCC2)ncn1 [Molidustat, molidustat, reference compound]

Plate 3 (% conversion) [1]: 42.00%
SMILES: CCc1c(C)[nH]c2c1C(=O)C(CN1CCOCC1)CC2 (centres unmarked) [Molindone hydrochloride]

inhibition at 20 µM [7]: 101%
SMILES: O=c1c(O)c(-c2ccc(O)cc2O)oc2cc(O)cc(O)c12 [Morin, reference compound]

Plate 3 (% conversion) [1]: 37.49%
SMILES: CC(=O)Oc1cc(C(C)C)c(OCCN(C)C)cc1C [Moxisylyte hydrochloride]

Plate 3 (% conversion) [1]: 33.12%
SMILES: COc1nc(C)nc(Cl)c1NC1=NCCN1.Cl [Moxonidine hydrochloride]

% conversion (LOPAC Plate 4, compound at 20 uM, substrate conversion): 26.09%
SMILES: CCNc1nc2c(ncn2[C@H]2C[C@H](O)[C@@H](CO)O2)c(=O)[nH]1 [N2-Ethyl-2-deoxyguanosine]

Plate 1 (% inhibition) [2]: -0.97% | Plate 1 (% conversion) [3]: 36.20%
SMILES: Nc1ccc(CCNc2ncnc3c2ncn3[C@@H]2O[C@H](CO)[C@@H](O)[C@H]2O)cc1 [N6-2-(4-Aminophenyl)ethyladenosine]

Plate 1 (% inhibition) [2]: -4.07%
SMILES: OC[C@H]1O[C@@H](n2cnc3c(NC4CCCC4)ncnc32)[C@H](O)[C@@H]1O [N6-Cyclopentyladenosine]

Plate 2 (% conversion) [4]: 38.74% | Plate 2 (% inhibition) [5]: -8.32%
SMILES: CN(C)C(=O)N=NC(=O)N(C)C [N,N,N,N-Tetramethylazodicarboxamide]

Plate 1 (% inhibition) [2]: -9.54% | Plate 1 (% conversion) [3]: 39.07%
SMILES: Nc1ccc(N2C(=O)c3ccccc3C2=O)c(Cl)c1 [N-(4-Amino-2-chlorophenyl)phthalimide]

Plate 1 (% inhibition) [2]: 6.30% | Plate 1 (% conversion) [3]: 33.76%
SMILES: CC(=O)N[C@@H](CS)C(=O)O [N-Acetyl-L-Cysteine]

Plate 1 (% inhibition) [2]: 3.70% | Plate 1 (% conversion) [3]: 34.63%
SMILES: CCN(CC)CCNC(=O)c1ccc(NC(C)=O)cc1.Cl [N-Acetylprocainamide hydrochloride]

inhibition at 20 µM [6]: -3.91%
SMILES: Clc1ccc2c(c1)N=C(N1CCNCC1)c1ccccc1N2 [N-Desmethylclozapine]

Plate 2 (% conversion) [4]: 34.79% | Plate 2 (% inhibition) [5]: 3.48%
SMILES: CN1C[C@H](O)[C@@H](O)[C@H](O)[C@H]1CO [N-Methyl-1-deoxynojirimycin]
